Test results taken from patent US6906061B2, “Pharmaceutical agent containing Rho kinase inhibitor” (Mitsubishi Pharma Corporation, priority 1996, dated 2005).

Columns and labels:
ROCKII = target: T1, ROCKII (Mus musculus, UniProt P70336); experiment: Inhibition of ROCKII (myc-tagged, expressed in COS cells); assay type: biochemical; conditions: enzyme expressed in COS cells; read-out: IC50 (μM) ROCK-II
T1 construct: made in house; host or cells: COS cells (transient transfection, immunoprecipitated with 9E10 anti-myc antibody on protein G-Sepharose)
T1 sequence (P70336 whole entry): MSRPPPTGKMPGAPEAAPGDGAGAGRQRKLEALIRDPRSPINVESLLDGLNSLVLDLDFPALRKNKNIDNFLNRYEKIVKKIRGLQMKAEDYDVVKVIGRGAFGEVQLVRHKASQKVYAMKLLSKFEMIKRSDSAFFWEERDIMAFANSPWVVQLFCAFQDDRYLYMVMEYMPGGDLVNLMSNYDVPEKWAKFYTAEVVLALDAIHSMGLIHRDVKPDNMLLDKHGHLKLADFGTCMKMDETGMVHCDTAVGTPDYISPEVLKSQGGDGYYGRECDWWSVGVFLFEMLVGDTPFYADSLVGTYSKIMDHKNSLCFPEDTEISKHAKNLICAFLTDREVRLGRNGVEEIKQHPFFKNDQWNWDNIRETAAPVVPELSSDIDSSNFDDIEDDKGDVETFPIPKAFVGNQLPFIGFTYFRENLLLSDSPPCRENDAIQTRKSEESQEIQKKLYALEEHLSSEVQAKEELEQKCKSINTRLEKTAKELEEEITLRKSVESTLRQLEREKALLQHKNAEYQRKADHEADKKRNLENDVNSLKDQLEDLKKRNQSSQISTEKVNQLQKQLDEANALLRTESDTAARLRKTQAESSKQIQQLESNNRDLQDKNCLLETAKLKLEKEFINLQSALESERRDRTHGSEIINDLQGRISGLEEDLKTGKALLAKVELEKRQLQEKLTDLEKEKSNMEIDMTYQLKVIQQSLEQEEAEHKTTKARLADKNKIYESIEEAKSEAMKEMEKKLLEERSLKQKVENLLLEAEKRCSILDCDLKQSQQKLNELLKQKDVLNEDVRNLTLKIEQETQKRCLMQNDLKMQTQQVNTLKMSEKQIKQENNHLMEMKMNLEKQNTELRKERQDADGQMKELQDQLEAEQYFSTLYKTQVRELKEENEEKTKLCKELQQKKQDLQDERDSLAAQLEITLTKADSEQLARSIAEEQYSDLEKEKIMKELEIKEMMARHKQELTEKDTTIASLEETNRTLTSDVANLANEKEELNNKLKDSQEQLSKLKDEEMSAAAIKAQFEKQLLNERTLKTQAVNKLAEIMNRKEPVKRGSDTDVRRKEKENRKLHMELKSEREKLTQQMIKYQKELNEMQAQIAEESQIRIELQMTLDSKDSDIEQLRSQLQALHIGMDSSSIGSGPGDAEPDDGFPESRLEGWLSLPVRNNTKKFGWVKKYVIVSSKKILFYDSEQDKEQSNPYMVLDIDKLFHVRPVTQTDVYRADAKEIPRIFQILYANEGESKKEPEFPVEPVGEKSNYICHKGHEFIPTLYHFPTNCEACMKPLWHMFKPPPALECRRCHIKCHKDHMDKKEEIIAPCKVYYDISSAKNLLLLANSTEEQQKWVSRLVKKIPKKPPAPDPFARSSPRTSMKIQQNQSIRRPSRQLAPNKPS
Experimental: (§1) Kinase assay included the following steps. That is, a reaction mixture (total amount 30 μl) containing 50 mM Hepes-NaOH (pH=7.4), 10 mM MgCl2, 5 mM MnCl2, 2 mM dithiothreitol, 0.02% Brij35, 1 μM [γ-^32P]ATP, 330 μg/ml histone, p160ROCK (2 μl) isolated by the method of Ishizaki et al. and the test compound was incubated at 30° C. for 20 minutes. The solution was mixed with a 1/3 amount of 4× Laemmli sample buffer, boiled for 5 minutes and applied to SDS-PAGE. The gel was stained with Coomassie Brilliant Blue and dried. The band of histone was cut out and assayed for radioactivity.
(§2) Rho Kinase Inhibitory Action (Inhibition of p160ROCK and ROCKII)
(§3) COS cells were seeded in a 3.5 cm dish and incubated overnight. […] After incubation for 20 hours, the cells were washed once with ice-cooled PBS, and the cells were lysed on ice for 20 minutes using a lysis buffer (20 mM Tris-HCl (pH=7.5), 1 mM EDTA, 1 mM EGTA, 5 mM MgCl2, 25 mM NaF, 10 mM β glycerophosphate, 5 mM sodium pyrophorphate, 0.2 mM phenylmethylsulfonyl fluoride, 2 mM dithiothreitol, 0.2 mM sodium vanadate, 0.05% Triton X-100, 0.1 μM calyculin A). The lysate was centrifuged at 10,000×g for 10 minutes and the supernatant was recovered. […] Then, protein G-Sepharose was added and the mixture was shaken for 2 more hours. […]

Human SK-Mel-28 melanoma = experiment: Inhibition of cell growth of SK-Mel-28 melanoma; assay type: cell-based; conditions: 72 hours, MTT
Experimental: Inhibition of Cell Growth of SK-Mel-28 Melanoma
Human SK-Mel-28 melanoma (10^4 cells) and the test compound were suspended in RPMI1640 medium containing 100 μl of 10% FBS and incubated in a 96 well plate at 37° C. under 5% CO2 gas for 72 hours. After the incubation, 10 μl of MTT (5 mg/ml) was added to each well and the cells were incubated at 37° C. under 5% CO2 gas for 4 hours. Then, 10% sodium dodecyl sulfate and 0.01 N hydrochloric acid solution were each added by 10 μl to respective wells. After the plate was stood overnight, absorbance at 570 nm was measured using a microplate reader and the inhibition percentage (% cytotoxicity) was calculated by the following formula.
The cytotoxicity against human cultured tumor cells was confirmed by pigment method (Carmichael et al., Cancer Res., 47, 936-942, 1987: Mosman, J. Immunol. Methods, 65, 55-63, 1983) using 3-(4,5-dimethylthiazol-2-yl)-2,5-diphenyltetrazolium bromide (MTT).
The test compound was dissolved in dimethyl sulfoxide and diluted with RPMI 1640 medium before use. The final dimethyl sulfoxide concentration was adjusted to not more than 0.25%.

[1] = tested on: CEM cells (human T cell type established cell); experiment: Inhibition of VLA integrin activation (phorbol ester-induced adhesion of CEM cells to fibronectin); assay type: cell-based; conditions: CCRF-CEM, concentration 100 μM, PMA-induced adhesion, read-out: Adhesion induction inhibition (%)
Experimental: Inhibition of VLA (Very Late Antigen) Integrin Activation
As the index of the activation by VLA integrin, phorbol ester-induced adhesion of CEM cells (human T cell type established cell) to fibronectin, which is a ligand of VIA integrin, was measured. The inhibitory action on the induced adhesion by the test compound was determined by the following method.
CEM cells were washed with RPMI1640 medium containing 0.5% bovine serum albumin (BSA), 10 mM HEPES, 2 mM L-glutamin, 1 mM sodium pyruvate, 60 μg/ml kanamycin sulfate and 1.5 mg/ml sodium hydrogencarbonate (hereinafter this medium is referred to as culture solution) and suspended in this medium for use in the following experiment. To each well of a 96 well plate coated with human fibronectin were added CEM cells (5×10^4) and the test compound dissolved in the culture solution (final concentration 1-100 μM) to the amount of 100 μl, and the plate was stood at 37° C. for 1 hour. Then, PMA (phorbol 12-myristate 13-acetate, TPA; final concentration 10 ng/ml) and the test compound were added to the amount of 200 μl, and the plate was stood at 37° C. for 30 minutes. Each well was washed twice with the culture solution (200 μL) at 37° C., and the LDH (lactate dehydrogenase) activity of the cells adhered to the plate was determined, whereby the amount of the adhered cell was measured. Based on the results obtained by the above-mentioned method, the inhibitory action of the test compound on the induced adhesion was calculated by the following formula The results are shown in Table 6. Inhibition (%) of adhesion induction=(a−b)/(a−c)×100 • a=number of cells adhered with the addition of PMA • b=number of cells adhered with the addition of test compound and PMA • c=number of cells adhered without stimulation

p160ROCK = target: T2, p160ROCK (Homo sapiens, UniProt Q13464); experiment: Inhibition of p160ROCK (myc-tagged, expressed in COS cells); assay type: biochemical; conditions: enzyme expressed in COS cells
T2 construct: made in house; host or cells: COS cells (transient transfection, immunoprecipitated with 9E10 anti-myc antibody on protein G-Sepharose)
T2 sequence (Q13464 whole entry): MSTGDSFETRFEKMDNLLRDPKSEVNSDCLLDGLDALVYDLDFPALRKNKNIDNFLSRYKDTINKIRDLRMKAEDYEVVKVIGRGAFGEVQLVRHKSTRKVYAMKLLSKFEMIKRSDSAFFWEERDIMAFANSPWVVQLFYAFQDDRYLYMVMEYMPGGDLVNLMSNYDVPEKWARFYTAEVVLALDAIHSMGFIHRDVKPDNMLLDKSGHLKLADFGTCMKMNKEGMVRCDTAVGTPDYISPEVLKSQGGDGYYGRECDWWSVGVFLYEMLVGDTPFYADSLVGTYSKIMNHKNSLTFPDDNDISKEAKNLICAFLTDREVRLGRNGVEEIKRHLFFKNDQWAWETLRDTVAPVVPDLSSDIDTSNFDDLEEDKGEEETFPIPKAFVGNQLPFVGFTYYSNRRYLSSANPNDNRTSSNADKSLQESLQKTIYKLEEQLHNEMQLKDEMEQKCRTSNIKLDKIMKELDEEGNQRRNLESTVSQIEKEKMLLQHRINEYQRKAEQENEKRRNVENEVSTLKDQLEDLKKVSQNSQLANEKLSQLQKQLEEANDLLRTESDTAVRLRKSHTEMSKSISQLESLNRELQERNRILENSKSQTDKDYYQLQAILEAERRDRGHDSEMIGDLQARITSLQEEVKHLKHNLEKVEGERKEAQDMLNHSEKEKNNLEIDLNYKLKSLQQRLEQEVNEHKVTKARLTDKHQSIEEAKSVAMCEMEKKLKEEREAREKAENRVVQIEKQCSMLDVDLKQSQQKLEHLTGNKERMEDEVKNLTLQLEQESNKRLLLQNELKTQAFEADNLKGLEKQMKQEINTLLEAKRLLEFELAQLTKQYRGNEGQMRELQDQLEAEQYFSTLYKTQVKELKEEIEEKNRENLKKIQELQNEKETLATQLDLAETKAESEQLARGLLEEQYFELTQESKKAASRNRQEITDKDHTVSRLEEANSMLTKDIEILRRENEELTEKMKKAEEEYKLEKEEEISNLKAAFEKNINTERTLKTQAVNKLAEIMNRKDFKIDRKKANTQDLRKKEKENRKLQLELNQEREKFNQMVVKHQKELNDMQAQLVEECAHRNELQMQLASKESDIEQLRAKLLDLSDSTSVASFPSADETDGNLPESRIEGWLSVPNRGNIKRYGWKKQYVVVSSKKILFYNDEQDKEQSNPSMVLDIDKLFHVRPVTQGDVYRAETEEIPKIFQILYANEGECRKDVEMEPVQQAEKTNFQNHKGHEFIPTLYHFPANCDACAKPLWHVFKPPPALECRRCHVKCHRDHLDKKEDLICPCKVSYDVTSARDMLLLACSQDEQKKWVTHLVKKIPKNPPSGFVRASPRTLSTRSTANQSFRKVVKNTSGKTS
Experimental: as §1, §2, §3

ddY mice = experiment: Acute toxicity in ddY mice; assay type: in vivo; conditions: intraperitoneal administration at 30 mg/kg, monitored for 5 days
Excerpt: The compound 109.2HCl and compound 143.2HCl.H2O were respectively administered intraperitoneally to ddY mice and the mice were monitored for 5 days.

[2] = target: T3, Human Platelet Rho Kinase (p160ROCK) (Homo sapiens, UniProt Q13464); experiment: Rho kinase inhibitory action (inhibition of human platelet Rho kinase (p160ROCK)); assay type: biochemical; conditions: histone substrate, 1 μM ATP
T3 construct: Human platelet p160ROCK was isolated by the method of Ishizaki et al; from tissue; host or cells: human platelets
T3 sequence (Q13464 whole entry): as above
Experimental: Rho Kinase Inhibitory Action (Inhibition of Human Platelet Rho Kinase (p160ROCK))
as §1

[3] = tested on: trachea specimen contracted with acetylcholine; experiment: Effect on contraction by acetylcholine of trachea specimen removed from guinea pig; conditions: Cavia porcellus, acetylcholine 10^−6 M contraction, 50% relaxation vs papaverine 10^−4 M maximum, read-out: Trachea relaxing action
Experimental: Male Hartley guinea pigs (body weight 260-390 g) were anesthetized by the peritoneal administration of pentobarbital sodium (100 mg/kg) and exsanguinated, whereafter trachea was removed. The anterior cartilage of the trachea was opened and the band was cut in a 3 mm width strip to give a specimen. The specimen was hung in a Magnus bath (40 ml) filled with Krebs-Henseleit solution (NaCl 117 mM; KCl 4.7 mM; CaCl2 2.5 mM; MgSO4 1.2 mM; NaHCO3 24.8 mM; KH2PO4 1.2 mM; glucose 11.0 mM) at a load of 1 g. The Magnus bath was constantly bubbled with a mixed gas (95% O2+5% CO2 gas). The tension of the strip was measured with an isomeric transducer (TB-611T, Nippon Koden) and depicted on a recorder (Ti-102, Tokai Irika).

[4] = tested on: hind limb skin blood flow; experiment: Peripheral blood flow increasing action in STZ-induced diabetic rats; assay type: in vivo, rat; conditions: intravenous, 1 μg
Outline: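 Male SD rats (200-300 g) made diabetic with STZ 65 mg/kg i.v.; one month later, under pentobarbital anesthesia, compound given i.v. via carotid catheter. Hind limb skin blood flow measured by laser flowmeter, expressed as percent increase over pre-dose flow.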

With `CC(N)[C@H]1CC[C@H](C(=O)Nc2ccnc3[nH]ccc23)CC1` (single isomer, unassigned; (+)) [Compound 109.2HCl, (+)-trans-N-(1H-pyrrolo[2,3-b]pyridin-4-yl)-4-(1-aminoethyl)cyclohexanecarboxamide] the IC50 (ROCKII) was 0.048 µM, the IC50 (Human SK-Mel-28 melanoma) was 58000 nM and the inhibition at 100 µM [1] was 67%. For the same molecule, the IC50 (p160ROCK) was 0.095 µM, the “Acute toxicity (death)” value (ddY mice) was “did not cause death” and the IC50 [2] was 110 nM. The IC50 [3] was 43 nM.

With `CC(N)[C@H]1CC[C@H](C(=O)Nc2ccncc2)CC1` (single isomer, unassigned; (+)) [Compound 80.2HCl.H2O, (+)-trans-4-(1-aminoethyl)-1-(4-pyridylcarbamoyl)cyclohexane] the inhibition at 100 µM [1] was 70% and the “Increase in skin blood flow ± standard error (%)” value [4] was 135.0 ± 13.4%.
